Biological target: T1, human serum albumin (HSA) (Homo sapiens, UniProt P02768)
T1 construct: purchased Chiral Technologies Inc., a subsidiary of Daicel Chemical Industries Ltd
Test: Fluorescence quenching titration of HSA, stability constants
Type: binding
Conditions: 10 mM phosphate buffer pH 7, 25 °C, excitation 280 nm
Description: The observed fluorescence intensities of HSA and the HSA–APR complexes at increasing APR concentrations were plotted against the total concentration of APR in the solution, and the stability constants were calculated according to Equation (18) by nonlinear parameter fitting.
The fluorescence measurements were carried out on a Jasco J-815 spectropolarimeter with a connected CDF-426L fluorescence detector and a temperature-controlled 10 mm cuvette holder (Jasco, Tokyo, Japan), thermostated to 25 °C with a Lauda water bath circulation thermostat (Lauda Brinkmann, Königshofen, Germany). Spectra Manager software (ver.: 2.08.04) was used for data analysis. The fluorescence analysis was performed with an excitation spectrum of 260–300 nm and detection of the cumulative fluorescence spectrum. […] A volume of 3 mL of the HSA stock solution with an HSA concentration of 0.32 μM was titrated with 2.5–30 μL of S- and, separately, R-APR solutions prepared at 3.75 mg mL^−1 in MeOH, which equals to a range of 6.8–80.6 μM of APR in the measured solution.
The stability constants of both enantiomers were calculated. […] Note that since the fluorescence signal of the ligand (APR) was subtracted for each sample, (IAPR) could be excluded from this equation (8) Iobs.=IHSA·χHSA+IAPR−HSA·χAPR−HSA where ΧHSA is the mole fraction of free HSA, while ΧAPR-HSA is the mole fraction of the APR-HSA complex. […]

T1 sequence (P02768 25-609): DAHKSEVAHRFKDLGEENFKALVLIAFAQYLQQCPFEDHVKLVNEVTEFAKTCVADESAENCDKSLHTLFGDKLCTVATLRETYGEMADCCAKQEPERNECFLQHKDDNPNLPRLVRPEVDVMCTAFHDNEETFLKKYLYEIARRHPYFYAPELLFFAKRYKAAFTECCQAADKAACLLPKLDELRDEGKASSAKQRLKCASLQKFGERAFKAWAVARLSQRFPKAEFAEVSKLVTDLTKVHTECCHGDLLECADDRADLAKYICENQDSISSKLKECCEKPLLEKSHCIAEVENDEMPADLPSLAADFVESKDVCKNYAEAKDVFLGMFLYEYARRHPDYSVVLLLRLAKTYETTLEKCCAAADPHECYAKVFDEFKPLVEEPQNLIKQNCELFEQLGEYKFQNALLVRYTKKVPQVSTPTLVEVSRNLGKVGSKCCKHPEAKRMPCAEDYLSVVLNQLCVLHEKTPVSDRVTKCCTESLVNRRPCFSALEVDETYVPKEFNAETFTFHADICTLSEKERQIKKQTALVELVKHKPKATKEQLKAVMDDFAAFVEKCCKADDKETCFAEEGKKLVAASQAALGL

SMILES | stability constant K of the enantiomer–HSA complex
CCOc1cc([C@H](CS(C)(=O)=O)N2C(=O)c3cccc(NC(C)=O)c3C2=O)ccc1OC [R-APR] | 6450 M⁻¹
CCOc1cc([C@@H](CS(C)(=O)=O)N2C(=O)c3cccc(NC(C)=O)c3C2=O)ccc1OC [S-APR, apremilast] | 10400 M⁻¹

— publication PMC9916978, “Enantioselective Human Serum Albumin Binding of Apremilast: Liquid Chromatographic, Fluorescence and Molecular Docking Study” (International Journal of Molecular Sciences, 2023)
